Experimental data from the RepoRT retention time repository.

Assay: HILIC, Waters ACQUITY UPLC BEH Amide, 100 × 2.1 mm, 1.7 µm; A: water + 0.125% formic acid + 10 mM ammonium formate; B: 5% water + 95% acetonitrile + 0.125% formic acid + 10 mM ammonium formate; gradient (min/%B) 0/100 2/100 7.7/70 9.5/40 10.25/30 12.75/100 17/100
Settings: stereoisomer not certain

With `CC(=O)Oc1ccccc1C(=O)Nc1ncc([N+](=O)[O-])s1` [Nitazoxanide] the LC retention time was 1 min.
With `CCCN1CCCCC1C(=O)Nc1c(C)cccc1C` (configuration not stated) [Ropivacaine] the LC retention time was 2.49 min.
`CC(O)C(C)O` (configuration not stated) [2,3-Butanediol] showed an LC retention time of 3.34 min.
For `NCCc1ccccn1` [2-(2-Aminoethyl)pyridine], the LC retention time was 5.52 min.
`O=c1[nH]c(=S)ccn1C1OC(CO)C(O)C1O` (configuration not stated) [4-Thiouridine] gave an LC retention time of 2.27 min.
`CC1(C)OC2COC3(COS(N)(=O)=O)OC(C)(C)OC3C2O1` (configuration not stated) [Topiramate] gave an LC retention time of 1.1 min.
Work on `CS(=O)CCCCC(=NO)SC1OC(CO)C(O)C(O)C1O` (configuration not stated) [Desulfo Glucoraphanin] yielded an LC retention time of 6.61 min.
`CC12CC3CC(C)(C1)CC(N)(C3)C2` [Memantine] gave an LC retention time of 4.24 min.
With `CN(CCO)CC(O)Cn1cnc2c1c(=O)n(C)c(=O)n2C` (configuration not stated) [Xanthinol] the LC retention time was 6.01 min.
Compound `Nc1ccn(C2CSC(CO)O2)c(=O)n1` (configuration not stated) [Lamivudine] has an LC retention time of 3.4 min.
With `C[N+](C)(C)CCCC(=O)O` [4-Trimethylammoniobutanoic acid] the LC retention time was 7.66 min.
Work on `NC1C(O)OC(COP(=O)(O)O)C(O)C1O` (configuration not stated) [Glucosamine-6-phosphate] yielded an LC retention time of 10.1 min.
Compound `CC(=O)NC(CC(C)C)C(=O)O` (configuration not stated) [N-Acetylleucine] has an LC retention time of 2.29 min.
`COc1ccc(-c2coc3cc(O)ccc3c2=O)cc1` [Formononetine] showed an LC retention time of 1.18 min.
`NC(Cc1ccc(O)cc1)C(=O)NC(Cc1ccc(O)cc1)C(=O)O` (configuration not stated) [Tyr-Tyr] gave an LC retention time of 7.38 min.
Compound `NC(=O)N1c2ccccc2C=Cc2ccccc21` [Carbamazepine] has an LC retention time of 1.21 min.
`CSCCCN` [3-Methylthiopropylamine] gave an LC retention time of 5.16 min.
`CC(C)C(NC(=O)CN)C(=O)O` (configuration not stated) [Gly-val] showed an LC retention time of 8.05 min.
For `NC(CCC(=O)NC(CS)C(=O)O)C(=O)O` (configuration not stated) [gamma-Glutamyl-cysteine], the LC retention time was 8.98 min.
In the case of `Nc1ccccc1O` [2-Aminophenol], the LC retention time is reported as 1.22 min.
With `CCOC(=O)OC1(C(=O)OCCl)CCC2C3CCC4=CC(=O)C=CC4(C)C3C(O)CC21C` (configuration not stated) [Loteprednol Etabonate] the LC retention time was 0.97 min.
For `CC(=O)OCCc1ccccc1` [Phenethylacetate], the LC retention time was 1.02 min.
`CCCCCCCC=O` [Octanal] showed an LC retention time of 6.98 min.
`CNC(CC(=O)O)C(=O)O` (configuration not stated) [N-Methylaspartic acid] gave an LC retention time of 2.53 min.
Compound `CNc1ccccc1` [N-Methylaniline] has an LC retention time of 1.06 min.
For `CC(c1cc2ccccc2s1)N(O)C(N)=O` (configuration not stated) [Zileuton], the LC retention time was 1.23 min.
`CCOC(=O)C1=C(C)NC(C)=C(C(=O)OCC)C1c1ccccc1C=CC(=O)OC(C)(C)C` [Lacidipine] gave an LC retention time of 0.94 min.
Compound `NC(=O)N1c2ccccc2CC(=O)c2ccccc21` [Trileptal] has an LC retention time of 1.13 min.
Compound `CCC1C(=O)OCC1Cc1cncn1C` (configuration not stated) [Pilocarpine] has an LC retention time of 2.23 min.
`CCOC(=O)C1(c2ccccc2)CCN(CCC(C#N)(c2ccccc2)c2ccccc2)CC1` [Diphenoxylate] showed an LC retention time of 1.41 min.
For `NC(CCC(=O)O)C(=O)NC(Cc1ccccc1)C(=O)O` (configuration not stated) [Glu-Phe], the LC retention time was 8.2 min.
For `NC(N)=NOCCC(N)C(=O)O` (configuration not stated) [Canavanine], the LC retention time was 9.42 min.
`CCC(C)C(NC(=O)C(C)N)C(=O)O` (configuration not stated) [Ala-Ile] showed an LC retention time of 7.83 min.
For `CCCCCCCCC=CCCCCCCCC(=O)OCC(O)CO` (configuration not stated) [Monoolein], the LC retention time was 1.19 min.
`OCc1cc(C(O)CNCCCCCCOCCCCc2ccccc2)ccc1O` (configuration not stated) [Salmeterol] showed an LC retention time of 4.75 min.
Compound `COc1cc(CNC(=O)CCCCC=CC(C)C)ccc1O` [Capsaicin] has an LC retention time of 1 min.
For `NC(=O)C=CC(=O)O` [Maleamic acid], the LC retention time was 1.12 min.
With `NC(CCS)C(=O)O` (configuration not stated) [Homocysteine] the LC retention time was 9.58 min.
In the case of `O=C(O)C(=O)Cc1c[nH]c2ccccc12` [Indole-3-pyruvic acid], the LC retention time is reported as 5.11 min.
`N#CC(O)c1ccc(O)cc1` (configuration not stated) [4-Hydroxymandelonitrile] gave an LC retention time of 2.63 min.
`COc1cc(/C=C/C(=O)O)ccc1O` [Ferulic acid] gave an LC retention time of 1.36 min.
Work on `CCN1CC(CCN2CCOCC2)C(c2ccccc2)(c2ccccc2)C1=O` (configuration not stated) [Doxapram] yielded an LC retention time of 1.64 min.
Work on `CCC(C)C(=O)OC1CCC=C2C=CC(C)C(CCC3CC(O)CC(=O)O3)C21` (configuration not stated) [Mevastatin] yielded an LC retention time of 0.99 min.
Compound `Nc1ccn(C2CCC(CO)O2)c(=O)n1` (configuration not stated) [2,3-Dideoxycytidine] has an LC retention time of 4.54 min.
Work on `CN(C)C(=N)N=C(N)N` [Metformin] yielded an LC retention time of 5.44 min.
`Cc1ncc(CO)c(CN)c1O` [Pyridoxamine] showed an LC retention time of 8.1 min.
For `CN1CCN(C2=Nc3ccccc3Oc3ccc(Cl)cc32)CC1` [Loxapine], the LC retention time was 2.18 min.
With `NC(=O)c1ccccc1` [Benzamide] the LC retention time was 1.27 min.
`COCC1OC(n2cc(C)c(=O)[nH]c2=O)CC1O` (configuration not stated) [5'-O-Methylthymidine] gave an LC retention time of 1.46 min.
For `NCCc1ccc(O)c(O)c1` [Dopamine], the LC retention time was 6.4 min.
With `CC12CCC3c4ccc(O)cc4CCC3C1CCC2=O` (configuration not stated) [1,3,5(10)-Estratrien-3-ol-17-one] the LC retention time was 1.01 min.
For `CC(CN(C)C)CN1c2ccccc2CCc2ccccc21` (configuration not stated) [Trimipramine], the LC retention time was 2.25 min.
In the case of `OCC(O)C(O)C(OC1OC(CO)C(O)C(O)C1O)C(O)CO` (configuration not stated) [Lactitol], the LC retention time is reported as 8.99 min.
`COc1cc(C)c(Cc2cnc(N)nc2N)cc1OC` [Ormetroprim] gave an LC retention time of 4.19 min.
With `O=C1CC2(CCCC2)CC(=O)N1CCNCC1COc2ccccc2O1` (configuration not stated) [Binospirone] the LC retention time was 1.8 min.
Compound `CCCCCCCCCCCCCCCCCC(=O)OCC(O)CO` (configuration not stated) [1-Monostearin] has an LC retention time of 0.99 min.
With `CCN(CC)CCOC(=O)C(O)(c1ccccc1)c1ccccc1` [Benactyzine] the LC retention time was 2.16 min.
In the case of `OCC1OC(n2cnc3c(NC4CCCC4)nc(Cl)nc32)C(O)C1O` (configuration not stated) [2-Chloro-N6-cyclopentyladenosine], the LC retention time is reported as 1.47 min.
`CC1=C2C3OC(=O)C(C)C3CCC2(C)C=CC1=O` (stereo not drawn) [alpha-Santonin] showed an LC retention time of 1.07 min.
In the case of `Nc1nc2nc[nH]c2c(=O)[nH]1` [Guanine], the LC retention time is reported as 6.4 min.
`NCCP(=O)(O)O` [2-Aminoethylphosphonic acid] gave an LC retention time of 9.39 min.
With `NC(=NCc1ccc(Cl)cc1)SCCCc1cnc[nH]1` [Clobenpropit] the LC retention time was 6.13 min.
With `CCCCCCc1ccc(O)cc1O` [4-Hexylresorcinol] the LC retention time was 1.63 min.
Compound `CC(C)NCC(O)c1ccc(NS(C)(=O)=O)cc1` (configuration not stated) [Sotalol] has an LC retention time of 4.87 min.
With `O=C(O)CCCCCCCCCCCCCCCCC(=O)O` [Octadecanedioic acid] the LC retention time was 1.24 min.
Compound `CCCCCCCCCCCCCCCCC(=O)O` [Heptadecanoic acid] has an LC retention time of 3.01 min.
`O=C1C(c2c(O)[nH]c3ccccc23)=Nc2ccccc21` [Indarubicin] gave an LC retention time of 1.07 min.
Work on `NC(=O)NC(N)=O` [Biuret] yielded an LC retention time of 2.73 min.
With `COc1ccccc1OCC(O)CN1CCN(CC(=O)Nc2c(C)cccc2C)CC1` (configuration not stated) [Ranolazine] the LC retention time was 2.79 min.
In the case of `CC(N=C(NC#N)Nc1ccncc1)C(C)(C)C` (configuration not stated) [Pinacidil], the LC retention time is reported as 1.49 min.
Compound `Cn1c(=O)[nH]c2ncn(C)c2c1=O` [1,7-Dimethylxanthine] has an LC retention time of 1.69 min.
Work on `NC(CCOC(=O)CCC(=O)O)C(=O)O` (configuration not stated) [O-Succinylhomoserine] yielded an LC retention time of 8.06 min.
Work on `CNC(CCC(=O)O)C(=O)O` (configuration not stated) [N-Methylglutamic acid] yielded an LC retention time of 8.32 min.
For `COc1ccc2[nH]cc(CC(=O)O)c2c1` [5-Methoxy-3-indoleacetic acid], the LC retention time was 1.32 min.
In the case of `COCCCCC(=NOCCN)c1ccc(C(F)(F)F)cc1` [Fluvoxamine], the LC retention time is reported as 2.93 min.
With `CCCCCCCCCCCCCC(=O)OC(CO)CO` [2-Myristoylglycerol] the LC retention time was 1.01 min.
In the case of `Cc1cn(C2OC(CO)C(O)C2O)c(=O)nc1N` (configuration not stated) [5-Methylcytidine], the LC retention time is reported as 6.39 min.
With `COc1cc2nc(N3CCN(C(=O)c4ccco4)CC3)nc(N)c2cc1OC` [Prazosin] the LC retention time was 3.75 min.
`CC(=O)NCCCCC(N)C(=O)O` (configuration not stated) [N-epsilon-Acetyllysine] gave an LC retention time of 8.03 min.
Work on `CC(O)CC(=O)OC(CC(=O)[O-])C[N+](C)(C)C` (configuration not stated) [3-Hydroxybutyrylcarnitine] yielded an LC retention time of 7.62 min.
Work on `CC(=O)Nc1ccc2c(c1)Cc1ccccc1-2` [N-2-Fluorenylacetamide] yielded an LC retention time of 4.74 min.
Compound `Cc1c(O)cccc1C(=O)NC(CSc1ccccc1)C(O)CN1CC2CCCCC2CC1C(=O)NC(C)(C)C` (configuration not stated) [Nelfinavir] has an LC retention time of 1.55 min.
Compound `NC(=O)NCCCC(N)C(=O)O` (configuration not stated) [Citrulline] has an LC retention time of 8.74 min.
For `O=CNC1CCCCC1` [N-Cyclohexylformamide], the LC retention time was 1.2 min.
With `CC(=O)CCCC(=O)O` [4-Acetylbutyric acid] the LC retention time was 1.24 min.
Work on `CCC(=O)Nc1ccc(Cl)c(Cl)c1` [Propanil] yielded an LC retention time of 1.08 min.
`O=C(O)CCC(O)C(=O)O` (configuration not stated) [2-Hydroxyglutaric acid] showed an LC retention time of 0.91 min.
`NC(=O)CCC(NC(=O)Cc1ccccc1)C(=O)O` (configuration not stated) [Phenylacetylglutamine] showed an LC retention time of 6.03 min.
`CCCCCCCCC=CCCCCCCCCCCCC(N)=O` [Erucamide] showed an LC retention time of 1.06 min.
Compound `NCCc1c[nH]c2ccccc12` [Tryptamine] has an LC retention time of 6.92 min.
Compound `Cc1ncsc1CCO` [4-Methyl-5-thiazoleethanol] has an LC retention time of 1.21 min.
Work on `CCOC(=O)COc1cc(-c2nn(C)c(OC(F)F)c2Cl)c(F)cc1Cl` [Pyrafluefen-ethyl] yielded an LC retention time of 1.02 min.
For `COC(=O)C1=COC(OC2OC(CO)C(O)C(O)C2O)C2C(CO)=CCC12` (configuration not stated) [Geniposide], the LC retention time was 4.53 min.
For `CC(C)CC(N(C)C)C1(c2ccc(Cl)cc2)CCC1` (configuration not stated) [Sibutramine], the LC retention time was 1.86 min.
In the case of `CC(C)C(N)C(=O)OCCOCn1cnc2c(=O)[nH]c(N)nc21` (configuration not stated) [Valaciclovir], the LC retention time is reported as 6.83 min.
`O=C(O)CCc1nc(-c2ccccc2)c(-c2ccccc2)o1` [Oxaprozin] gave an LC retention time of 1.11 min.
Compound `NC(=O)c1[nH]cnc1N` [5-Aminoimidazole-4-carboxamide] has an LC retention time of 4.18 min.
